Assay results from US20240391875A1, “ISOQUINOLINONES AND QUINOLINONES AS MODULATORS OF POLRMT” (Pretzel Therapeutics, Inc., priority 2021, published 2024).

Biological target: POLRMT (Homo sapiens, UniProt O00411)
Experiment: homogeneous TR-FRET assay of mitochondrial transcription (inhibition of POLRMT)
Type: biochemical
Details: isoquinolinone compounds (Table 1)
Protocol: The inhibitory activity of the compounds of the present invention against POLRMT were determined by assays based on Bergbrede, T., et al., “An adaptable high-throughput technology enabling the identification of specific transcription modulators,” SLAC Discov., 22, 378-386 (2017).
The ability of some compounds of the present invention to inhibit POLRMT were determined in a homogeneous TR-FRET Assay using high-throughput screening in a 384-well plate format. This method is used to monitor the activity of mitochondrial transcription through measurement of its product, a 407 bp long RNA transcript. Detection of the product is facilitated by hybridization of two DNA-oligonucleotide probes to specific and adjacent sequences within the RNA product sequence. Upon annealing of the probes, two fluorophores are coupled directly to an acceptor nucleotide probe (ATTO647, 5′), or introduced via a coupled streptavidin with a biotinylated donor nucleotide probe (Europium cryptate) that is brought into sufficient proximity to serve as a fluorescence-donor-acceptor pair. Thus, a FRET signal at 665 nm is generated upon excitation at 340 nm.
Proteins used as transcription factors (POLRMT: NP_005026.3, TFAM: NP_003192.1, TFB2M: NP_071761.1) are diluted from their stocks to working concentrations of 1 μM, 20 μM and 4 μM respectively, in a dilution buffer containing 20 mM Tris-HCl (pH 8.0), 200 mM NaCl, 10% (v/v) glycerol, 1 mM Dithiothreitol (DTT), 0.5 mM EDTA.
DNA template is a pUC18 plasmid with the mitochondrial light strand promotor sequence (1-477) cloned between HindIII and BamHI sites. The DNA template is restriction linearized proximal to the promotor 3′-end (pUC-LSP).
The reaction mixture (10 uL) containing 7.5 nM POLRMT, 15 nM of TFB2M, 30 nM of TFAM, 0.5 nM of DNA template and 500 μM nucleotide triphosphate mix (NTPs) in a reaction buffer (containing 10 mM Tris-HCl (pH 7.5), 10 mM MgCl2, 40 mM NaCl, 10 mM DTT, 0.005% (w/v) Tween-20, 160 units/ml Rnase inhibitor and 0.1 mg/mL BSA) are dispensed to compounds in microplates, using a Thermo Multidrop® dispenser, and incubated at 37° C. in a VWR INCU-Line incubator for 60 minutes after mixing. No nucleotide triphosphate mix is added to negative control samples. Microplates with compounds to be tested in the assay are prepared from 10 mM compound stocks in 100% DMSO, equal amounts of DMSO without any compound are added to positive control and negative control samples.
During the incubation, a mix of the detection reagents is prepared in a buffer such that the enzymatic reaction is terminated due to chelating of Mg-ions and increased ionic strength, containing 50 mM Tris-HCl (pH 7.5), 700 mM NaCl, 20 mM EDTA, and 0.010% (w/v) Tween-20. Europium-streptavidin is pre-incubated with a 200-fold molar excess of a random sequence oligonucleotide to block unspecific binding of oligo, for two hours at ambient temperature in the dark. Afterwards, the blocked Europium-streptavidin is kept on ice until use.
At the end of the enzymatic reaction time, 5 μL detection oligo mix in the detection buffer is added, and assay plates are mixed and kept at ambient temperature for one hour, protected from light. The concentration of the Acceptor nucleotide oligo (e.g., ATTO647N-5′-[…]-3′) and Donor nucleotide oligo (e.g., bio-5′-AACACATCTCT(-bio)GCCAAACCCCA-bio-3′) in each assay well is 1 nM, and 3 nM, respectively.
After incubation with oligo mix, 5 μL of pre-blocked Europium-streptavidin reagent is dispensed to each assay well, assay plates are again mixed and kept at ambient temperature for one hour, protected from light.
The generated signal is measured with BMG Pherastar microtiter plate reader with a TRF light unit, using excitation at 340 nm, an integration time of 200 μs, and a delay time of 100 μs, before detection at 620 nm and 665 nm. The ratio of donor- and acceptor-fluorescence is used as a measure of the generated transcript product (i.e. enzymatic activity).

Sequence of POLRMT (O00411 42-1230): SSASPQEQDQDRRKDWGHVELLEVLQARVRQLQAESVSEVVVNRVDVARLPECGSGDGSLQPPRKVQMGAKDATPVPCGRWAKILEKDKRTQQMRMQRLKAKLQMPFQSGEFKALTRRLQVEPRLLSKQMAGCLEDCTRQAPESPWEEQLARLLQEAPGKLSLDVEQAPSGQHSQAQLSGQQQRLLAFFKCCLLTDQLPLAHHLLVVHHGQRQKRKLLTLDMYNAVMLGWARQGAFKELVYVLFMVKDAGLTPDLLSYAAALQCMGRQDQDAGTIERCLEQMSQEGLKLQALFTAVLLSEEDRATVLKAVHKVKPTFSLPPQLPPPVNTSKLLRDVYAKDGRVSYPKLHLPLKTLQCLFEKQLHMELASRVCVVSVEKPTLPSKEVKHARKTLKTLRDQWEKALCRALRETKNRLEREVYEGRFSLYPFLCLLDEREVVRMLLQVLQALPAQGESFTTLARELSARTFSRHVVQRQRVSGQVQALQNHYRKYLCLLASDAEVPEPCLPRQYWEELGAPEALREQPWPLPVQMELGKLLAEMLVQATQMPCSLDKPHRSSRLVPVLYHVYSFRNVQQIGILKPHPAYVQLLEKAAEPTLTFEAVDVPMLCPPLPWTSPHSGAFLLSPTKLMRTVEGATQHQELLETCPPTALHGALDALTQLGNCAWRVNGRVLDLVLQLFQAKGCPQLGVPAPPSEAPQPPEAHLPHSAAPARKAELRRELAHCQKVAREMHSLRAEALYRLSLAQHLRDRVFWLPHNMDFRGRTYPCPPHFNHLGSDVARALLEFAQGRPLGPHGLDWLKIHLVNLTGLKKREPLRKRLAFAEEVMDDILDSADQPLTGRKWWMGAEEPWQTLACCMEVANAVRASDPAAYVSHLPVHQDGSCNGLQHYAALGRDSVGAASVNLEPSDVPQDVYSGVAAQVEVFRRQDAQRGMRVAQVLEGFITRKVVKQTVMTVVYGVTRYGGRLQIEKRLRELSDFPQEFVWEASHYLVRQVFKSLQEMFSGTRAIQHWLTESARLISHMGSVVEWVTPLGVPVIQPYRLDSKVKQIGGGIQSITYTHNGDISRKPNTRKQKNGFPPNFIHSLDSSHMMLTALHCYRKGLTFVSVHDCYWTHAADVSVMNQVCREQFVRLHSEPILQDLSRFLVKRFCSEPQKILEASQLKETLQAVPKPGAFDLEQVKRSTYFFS

| Compound | IC50 [nM] |
| --- | --- |
| CC(=O)N(C)Cc1ccc2c(-c3ccccc3C)c[nH]c(=O)c2c1 [Example 45, N-methyl-N-((1-oxo-4-(o-tolyl)-1,2-dihydroisoquinolin-7-yl)methyl)acetamide] | > 100000 |
| Cc1ccccc1-c1c[nH]c(=O)c2cc(CN)ccc12 [Example 38, 7-(aminomethyl)-4-(o-tolyl)isoquinolin-1(2H)-one] | > 100000 |
| Cc1ccccc1-c1c[nH]c(=O)c2cc(NC(C)C(=O)N(C)C)ccc12 (stereo not shown) [Example 47] | 11000 |
| COc1ccc2c(-c3ccc(F)cc3Cl)c[nH]c(=O)c2c1 [Example 1, 4-(2-chloro-4-fluorophenyl)-7-methoxyisoquinolin-1(2H)-one] | 10000 |
| Cc1ccccc1-c1c[nH]c(=O)c2cc(NC(C)C(N)=O)ccc12 (stereo not shown) [Example 69] | 12000 |
| C[C@@H](Oc1ccc2c(-c3ccc(F)cc3Cl)c[nH]c(=O)c2c1)C(=O)N1CCCC(S(C)(=O)=O)C1 (single isomer, unassigned) [Example 96] | 2000 |
| Cc1ccccc1-c1c[nH]c(=O)c2cc(C(=O)N3CCCC3)ccc12 [Example 19, 7-(pyrrolidine-1-carbonyl)-4-(o-tolyl)isoquinolin-1(2H)-one] | > 100000 |
| CC(=O)N1CC[C@H](Oc2ccc3c(-c4ccccc4C)c[nH]c(=O)c3c2)C1 [Example 17, (S)-7-((1-acetylpyrrolidin-3-yl)oxy)-4-(o-tolyl)isoquinolin-1(2H)-one] | 82000 |
| C[C@@H](Oc1ccc2c(-c3ccc(F)cc3Cl)c[nH]c(=O)c2c1)C(=O)N1CCOC[C@H]1C(=O)O [Example 112, (S)-4-((R)-2-((4-(2-chloro-4-fluorophenyl)-1-oxo-1,2-dihydroisoquinolin-7-yl)oxy)propanoyl)morpholine-3-carboxylic acid] | 4000 |

Further lines, results first:

| IC50 [nM] | Compound |
| --- | --- |
| 400 | CC[C@@H](Oc1ccc2c(-c3ccccc3C)c[nH]c(=O)c2c1)C(=O)O [Example 126, (R)-2-((1-oxo-4-(o-tolyl)-1,2-dihydroisoquinolin-7-yl)oxy)butanoic acid] |
| 900 | N#CCOc1ccc2c(-c3ccc(F)cc3Cl)c[nH]c(=O)c2c1 [Example 37, 2-((4-(2-chloro-4-fluorophenyl)-1-oxo-1,2-dihydroisoquinolin-7-yl)oxy)acetonitrile] |
| 300 | Cc1ccc(-c2c[nH]c(=O)c3cc(OCC#N)ccc23)c(Cl)c1 [Example 89, 2-((4-(2-chloro-4-methylphenyl)-1-oxo-1,2-dihydroisoquinolin-7-yl)oxy)acetonitrile] |
| 400 | Cc1ccccc1-c1c[nH]c(=O)c2cc(OC(C)C(F)(F)F)ccc12 (stereo not shown) [Example 61, 4-(o-tolyl)-7-((1,1,1-trifluoropropan-2-yl)oxy)isoquinolin-1(2H)-one] |
| 400 | Cc1cc(F)ccc1-c1c[nH]c(=O)c2cc(OCC#N)ccc12 [Example 83, 2-((4-(4-fluoro-2-methylphenyl)-1-oxo-1,2-dihydroisoquinolin-7-yl)oxy)acetonitrile] |
| 300 | C[C@@H](Oc1ccc2c(-c3ccc(F)cc3Cl)c[nH]c(=O)c2c1)C(=O)N1CCOC[C@@H]1C(N)=O [Example 122, (R)-4-((R)-2-((4-(2-chloro-4-fluorophenyl)-1-oxo-1,2-dihydroisoquinolin-7-yl)oxy)propanoyl)morpholine-3-carboxamide] |
| 300 | CCc1ccccc1-c1c[nH]c(=O)c2cc(OCC#N)ccc12 [Example 137, 2-((4-(2-ethylphenyl)-1-oxo-1,2-dihydroisoquinolin-7-yl)oxy)acetonitrile] |
| 30 | Cc1ccccc1-c1c[nH]c(=O)c2cc(O[C@H](C)C(=O)N3CCC[C@H](C#N)C3)ccc12 [Example 77, (S)-1-((R)-2-((1-oxo-4-(o-tolyl)-1,2-dihydroisoquinolin-7-yl)oxy)propanoyl)piperidine-3-carbonitrile] |
| 600 | C[C@@H](Oc1ccc2c(-c3ccc(F)cc3Cl)c[nH]c(=O)c2c1)C(=O)N1CCOC[C@H]1CO [Example 113, 4-(2-chloro-4-fluorophenyl)-7-(((R)-1-((R)-3-(hydroxymethyl)morpholino)-1-oxopropan-2-yl)oxy)isoquinolin-1(2H)-one] |
| 400 | Cc1ccccc1-c1c[nH]c(=O)c2cc(O[C@H](C)C(=O)N3CC[C@H](C(=O)O)C3)ccc12 [Example 35, (S)-1-((R)-2-((1-oxo-4-(o-tolyl)-1,2-dihydroisoquinolin-7-yl)oxy)propanoyl)pyrrolidine-3-carboxylic acid] |
| 60 | C[C@@H](Oc1ccc2c(-c3ccc(F)cc3Cl)c[nH]c(=O)c2c1)C(=O)N1CCC[C@H](C(=O)O)C1 [Example 62, (S)-1-((R)-2-((4-(2-chloro-4-fluorophenyl)-1-oxo-1,2-dihydroisoquinolin-7-yl)oxy)propanoyl)piperidine-3-carboxylic acid] |
| 300 | C[C@@H](Oc1ccc2c(-c3ccc(F)cc3Cl)c[nH]c(=O)c2c1)C(=O)N1CCC(F)(F)CC1 [Example 91, (R)-4-(2-chloro-4-fluorophenyl)-7-((1-(4,4-difluoropiperidin-1-yl)-1-oxopropan-2-yl)oxy)isoquinolin-1(2H)-one] |
| 400 | Cc1ccccc1-c1c[nH]c(=O)c2cc(OC(C)C)ccc12 [Example 4, 7-isopropoxy-4-(o-tolyl)isoquinolin-1(2H)-one] |
| 30 | Cc1ccccc1-c1c[nH]c(=O)c2cc(O[C@H](C)C(=O)N3CCCC(F)(F)C3)ccc12 [Example 81, (R)-7-((1-(3,3-difluoropiperidin-1-yl)-1-oxopropan-2-yl)oxy)-4-(o-tolyl)isoquinolin-1(2H)-one] |
| 200 | COCC(C#N)Oc1ccc2c(-c3ccccc3C)c[nH]c(=O)c2c1 (single isomer, unassigned) [Example 76, 3-methoxy-2-((1-oxo-4-(o-tolyl)-1,2-dihydroisoquinolin-7-yl)oxy)propanenitrile] |
| 300 | C[C@@H](Oc1ccc2c(-c3ccc(F)cc3Cl)c[nH]c(=O)c2c1)C(=O)N1CCOC[C@H]1C(N)=O [Example 123, (S)-4-((R)-2-((4-(2-chloro-4-fluorophenyl)-1-oxo-1,2-dihydroisoquinolin-7-yl)oxy)propanoyl)morpholine-3-carboxamide] |
| 1000 | CNC(=O)[C@@H](C)Oc1ccc2c(-c3ccccc3C)c[nH]c(=O)c2c1 [Example 20, (R)—N-methyl-2-((1-oxo-4-(o-tolyl)-1,2-dihydroisoquinolin-7-yl)oxy)propanamide] |
| 1000 | COCC(C)Oc1ccc2c(-c3ccccc3C)c[nH]c(=O)c2c1 (single isomer, unassigned) [Example 26, 7-((1-methoxypropan-2-yl)oxy)-4-(o-tolyl)isoquinolin-1(2H)-one] |

Same assay, conditions: quinolinone compounds (Table 2)

| IC50 [nM] | Compound |
| --- | --- |
| 18000 | C[C@@H](Oc1ccc2c(-c3ccc(F)cc3Cl)cc(=O)[nH]c2c1)C(=O)N(C)C [Example Q6, (R)-2-((4-(2-chloro-4-fluorophenyl)-2-oxo-1,2-dihydroquinolin-7-yl)oxy)-N,N-dimethylpropanamide] |
| 2000 | Cc1ccccc1-c1cc(=O)[nH]c2cc(OC(C)C)ccc12 [Example Q10, 7-isopropoxy-4-(o-tolyl)quinolin-2(1H)-one] |
| > 100000 | O=c1cc(-c2ccc(F)cc2Cl)c2ccc(O)cc2[nH]1 [Example Q2, 4-(2-chloro-4-fluorophenyl)-7-hydroxyquinolin-2(1H)-one] |

| Compound | IC50 [nM] |
| --- | --- |
| CCC(C)Oc1ccc2c(-c3ccccc3C)cc(=O)[nH]c2c1 (stereo not shown) [Example Q11, 7-(sec-butoxy)-4-(o-tolyl)quinolin-2(1H)-one] | 3000 |
